Source: ChEMBL document CHEMBL1144539, “Fluoro-ketopyranosyl nucleosides: synthesis and biological evaluation of 3-fluoro-2-keto-beta-D-glucopyranosyl derivatives of N4-benzoyl cytosine” (Bioorg Med Chem, 2007)
≈ marks a conversion by molar mass, not a printed value.

What was measured:
[1] = Antiviral activity against bovine rotavirus RF in MA 104 cells assessed as neutralization of virus in solution before cell attachment; type: functional, cell-based, Bovine rotavirus strain RF; settings: Rotavirus A
Caco-2 [2] = assay: Cytotoxicity against human Caco-2 cells after 72 hrs; type: cell-based; settings: Caco-2, 72 h
[3] = Stimulation of proliferation of monkey MA104 cells at 30 ng/mL after 72 hrs relative to control; type: functional, Macaca mulatta
[4] = Inhibition of bovine rotavirus RF infectivity following virus attachment to MA 104 cells; type: functional, cell-based, Bovine rotavirus strain RF; settings: Rotavirus A
Caco-2 [5] = assay: Growth inhibition of human Caco-2 cells after 72 hrs; type: functional, cell-based; settings: Caco-2, 72 h
[6] = Antiviral activity against bovine rotavirus RF in MA104 cells; type: functional, cell-based, Bovine rotavirus strain RF; settings: Rotavirus A

Row | SMILES | IC50 [1] [µg/mL] | IC50 (Caco-2 [2]) [µg/mL] | Activity [3] [%] | IC50 [4] [µg/mL] | IC50 (Caco-2 [5]) [µg/mL] | IC50 [6] [µg/mL]
1 | O=C(Nc1ccn(C[C@@H]2O[C@H](CO)[C@@H](O)[C@H](F)C2=O)c(=O)n1)c1ccccc1 | 70 (≈ 179 µM) | 1500 (≈ 3830 µM) | 40 | 70 (≈ 179 µM) | 2500 (≈ 6390 µM) | 
2 | Cc1cn([C@H]2C[C@H](N=[N+]=[N-])[C@@H](CO)O2)c(=O)[nH]c1=O [ZIDOVUDINE] | 60 (≈ 225 µM) | 15 (≈ 56.1 µM) |  | 15 (≈ 56.1 µM) | 15 (≈ 56.1 µM) | 4 (≈ 15 µM)
